In patent US12624039B2, “BTK inhibitors” (DIZAL (JIANGSU) PHARMACEUTICAL CO., LTD., priority 2020, dated 2026):
pIC50: −log10 of the molar value. Where two headings read alike, the source gives them in different places.

How the values were obtained:
[1] = Protein binding in human plasma by equilibrium dialysis; type: in vitro ADME; settings: 18 hours at 37° C.; for fraction unbound at 18 h, 5 μM: human, plasma, pH 7.4, human plasma, read-out: hPPB (fu %); for hPPB (fu %): human plasma, 5 μM, fraction unbound
Experimental: [formula] DF means the dilution factor. Procedure for Protein Binding Measurements in Human Plasma by Using Equilibrium Dialysis
Add 597 μL of blank plasma into each vial of a new plastic plate or separate plastic tube by addition of 3 μL of the working solution of each cassette, vortex at 1,000 rpm for 5 minutes. The final percent volume of organic solvent is 0.5% and the final concentration for test compound is 5 μM. Immediately transfer 50 μL of the spiked plasma suspension to a 96-well plate to act as T=0 control sample. The samples are treated the same as the samples after incubation. Place all remaining spiked plasma in the incubator for the duration of the study.
Place inserts open end up into the wells of the base plate. Add 500 μL of phosphate buffer (pH 7.4) to the buffer chamber, which is indicated by the white ring. Add 300 μL of spiked plasma sample into the sample chamber, which is indicated by the red ring. Cover the unit with gas permeable lid and incubate for 18 hours at 37° C. at 300 rpm with 5% CO2 on an orbital shaker in the CO2 incubator. At the end of incubation, remove lid and pipette 50 μL of post-dialysis samples from both buffer and plasma chambers into separated 96-well plate for analysis, respectively.
At the same time, the remaining spiked plasma sample in the plastic plate or separate plastic tube is incubated for 18 hours at 37° C. with 5% CO2 in the CO2 incubator. At T=18 hours, transfer 50 μL of the original spiked plasma suspension to the 96-well plate for analysis.
Add 50 μL of Human plasma to the buffer samples, and an equal volume of PBS to the collected plasma samples. Vortex the plate at 1,000 rpm for 2 minutes and add 400 μL of acetonitrile containing an appropriate internal standard (IS) to precipitate protein and release compound. Vortex at 1,000 rpm for 10 minutes. Centrifuge for 30 minutes at 4,000 rpm. Transfer 250 μl of the supernatant to new 96-well plates and centrifuge again (4,000 rpm, 30 minutes). Then transfer 100 μL of the supernatant to new 96-well plates for analysis. Add 100 μL of distilled water to each sample and vortex for 5 minutes at 1,000 rpm for analysis by LC-MS/MS. All compounds are tested in singlicate at 5 μM in human plasma.
All calculations are carried out using Microsoft Excel.
Calculate the percentage of unbound, percentage of bound and recovery of test compound as follows: […]

[2] = Short oral absorption (SOA) assay in rats, brain penetration; type: in vivo; settings: rat; for Kp: brain, AUCbrain/AUCplasma
Experimental: Short Oral Absorption (SOA) Assay in Rats.
(§1) A Short oral absorption (SOA) model is an in-vivo screening model to identify brain penetration of a compound. To evaluate the potential of a compound to cross the blood-brain barrier in rats, total brain-to-plasma ratio (Kp,brain) was measured AUCbrain/AUCplasma. CSF-to-plasma ratio (Kp,CSF) was determined by either AUCCSF/AUCplasma or the average of CSF-to-plasma ratios at available time points after oral administration, respectively. Free fractions of in biological matrix were determined by in vitro plasma and brain binding assay in a separate study. Kp,uu,brain and Kp,uu,CSF were calculated by the following equations: (1) Kp,uu,brain=Kp, brain×fu,brain/fu,plasma; (2) Kp,uu,CSF=Kp,CSF/fu,plasma.

[3] = In vitro plasma and brain binding assay (free fractions); type: in vitro ADME, rat
Experimental: as §1

[4] = molecular target: T1, BTK-C481S in HEK293-BTK(C481S) cells (Homo sapiens, UniProt Q06187, C481S); assay: HEK293-BTK(C481S) p-BTK ELISA; type: cell-based; settings: 1.5 hour
T1 construct: Full-length cDNAs of BTK containing C481S mutation was generated by mutagenesis; expressed in transfected cells
T1 sequence (Q06187 whole entry C481S): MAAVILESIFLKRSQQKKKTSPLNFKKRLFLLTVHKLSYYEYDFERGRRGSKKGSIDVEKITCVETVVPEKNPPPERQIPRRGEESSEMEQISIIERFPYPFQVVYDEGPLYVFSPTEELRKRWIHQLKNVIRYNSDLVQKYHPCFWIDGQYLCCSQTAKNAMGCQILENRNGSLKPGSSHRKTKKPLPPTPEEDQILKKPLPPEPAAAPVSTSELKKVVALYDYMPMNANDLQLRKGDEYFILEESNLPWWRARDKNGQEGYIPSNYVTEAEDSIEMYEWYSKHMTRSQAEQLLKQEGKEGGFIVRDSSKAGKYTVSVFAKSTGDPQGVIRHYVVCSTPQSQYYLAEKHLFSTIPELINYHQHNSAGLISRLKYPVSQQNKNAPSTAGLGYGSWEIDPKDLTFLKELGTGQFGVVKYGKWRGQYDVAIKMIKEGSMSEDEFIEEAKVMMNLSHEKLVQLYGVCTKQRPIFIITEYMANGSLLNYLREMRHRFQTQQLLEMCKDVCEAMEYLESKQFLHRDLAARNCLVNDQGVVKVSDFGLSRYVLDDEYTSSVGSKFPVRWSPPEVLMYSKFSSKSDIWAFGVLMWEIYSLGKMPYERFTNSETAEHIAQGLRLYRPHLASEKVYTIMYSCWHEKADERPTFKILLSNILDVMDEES
Experimental: (§2) The mutated BTK cDNAs were confirmed by sequencing. […] The transfected cells were selected in 2 μg/mL of puromycin. Stable polyclonal cell lines were confirmed by WB and used for further study. […] All the cells were maintained in a humidified incubator at 37° C. with 5% CO2.
(§3) The test compounds were added to the cells and cells were incubated for 1.5 hour at 37° C., 5% CO2. […] The plate was read on a Multiscan Spectrum reader set to 450 nm wavelengths. The data were processed in Graph Pad Prism software.

Hu Mic Clint = type: in vitro ADME, human; settings: for microsomal CLint: human, microsomes
[5] = molecular target: T2, Recombinant BTK wild type (BTK WT) (Homo sapiens, UniProt Q06187); assay: BTK WT HTRF kinase assay; type: biochemical; settings: 30 min pre-incubation, 120 min reaction
T2 construct: purchased Thermo fisher
T2 sequence (Q06187 whole entry): as the sequence (Q06187 whole entry C481S) above, with S481C counted along it
Experimental: Recombinant BTK wild type (BTK WT) was purchased from Thermo fisher.
In brief, recombinant kinases were pre-incubated in the presence or absence of compound at room temperature for 30 minutes. The reaction was initiated by the addition of the ATP and substrate peptide which could be phosphorylated by kinases in the reaction. After 120 minutes incubation, the reaction was stopped by the addition of the detection reagent mix containing EDTA.

TMD-8 cells = assay: TMD-8 anti-proliferation assay; type: cell-based
Experimental: TMD-8 Anti-Proliferation Assay
TMD-8 cells were prepared in RPMI1640 media containing 10% foetal bovine, and plated in 384 well plates at 1500 cells per well, The cells were incubated overnight at 37° C., 5% CO2. After incubation, compounds with different concentration were added to the assay plates and incubate cells for a further 72 hours at 37° C., 5% CO2. Following 72 hours incubation, 15 μl of CellTiter 96® AQueous One Solution Reagent was added to each well and the plates incubated at room temperature for 30 mins. Cell viability was determined using the CellTiter-Glo (Promega, USA). The CellTiter-Glo assay was performed according to the manufacturer's instructions, and luminescence was determined in a multi-label reader (Envision, PerkinElmer, USA). The data were processed in XLfit software.

[6] = molecular target: T3, BTK(WT) in HEK293-BTK(WT) cells (Homo sapiens, UniProt Q06187); assay: HEK293-BTK(WT) p-BTK ELISA; type: cell-based; settings: 1.5 hour
T3 construct: Full-length cDNAs of BTK containing C481S mutation was generated by mutagenesis; expressed in transfected cells
Experimental: as §2, §3

[7] = Kp,CSF/fu,plasma, read-out: Kp, uu CSF
[8] = Kp,brain×fu,brain/fu,plasma, read-out: Kp, uu brain
[9] = rat brain free fraction, read-out: Rat fu, br (%)
[10] = rat plasma free fraction, read-out: Rat fu, pl (%)

Row | Compound | fraction unbound at 18 h, 5 μM [1] | Kp [2] | Kp uu [2, 7] | Kp uu [2, 8] | fraction unbound [3, 9] | fraction unbound [3, 10] | pIC50 [4] | microsomal CLint (Hu Mic Clint) [µL/min/mg] | pIC50 [5] | pIC50 [6] | hPPB (fu %) [1] [%] | Hu Mic Clint (Hu Mic Clint) [µL/min/mg] | pIC50 (TMD-8 cells; 72 hours) | pIC50 (TMD-8 cells; Homo sapiens, TMD8, 72 h)
1 | Nc1nccn2c(C3CCC(CO)OC3)nc(-c3ccc(Oc4ccccc4)cc3F)c12 (single isomer, unassigned) [Compound 2, Trans-(5-(8-amino-1-(2-fluoro-4-phenoxyphenyl)imidazo[1,5-a]pyrazin-3-yl)tetrahydro-2H-pyran-2-yl)methanol] | 0.106 | 1.35 | 0.86 | 1.19 | 0.033 | 0.038 | 7.15 | 12.7 | 9.22 | 7.56 | – | – | 7.64 | –
2 | Nc1nccn2c(C3CCC(CO)OC3)nc(-c3ccc(Oc4ccccc4)cc3F)c12 (single isomer, unassigned) [Compound 3, Trans-(5-(8-amino-1-(2-fluoro-4-phenoxyphenyl)imidazo[1,5-a]pyrazin-3-yl)tetrahydro-2H-pyran-2-yl)methanol] | – | – | – | – | – | – | – | – | 8.20 | – | 11.9 | 23.7 | 6.97 | –
3 | Nc1nccn2c(C3CCC(CO)OC3)nc(-c3ccc(Oc4ccccc4)c(F)c3F)c12 (single isomer, unassigned) [Compound 4, (5-(8-amino-1-(2,3-difluoro-4-phenoxyphenyl)imidazo[1,5-a]pyrazin-3-yl)tetrahydro-2H-pyran-2-yl)methanol] | 0.088 | – | – | – | – | – | 7.07 | 7.44 | 9.31 | 7.73 | – | – | 7.79 | –
4 | Nc1nccn2c(C3CCC(CO)OC3)nc(-c3ccc(Oc4ccccc4)c(F)c3F)c12 (single isomer, unassigned) [Compound 5, (5-(8-amino-1-(2,3-difluoro-4-phenoxyphenyl)imidazo[1,5-a]pyrazin-3-yl)tetrahydro-2H-pyran-2-yl)methanol] | – | – | – | – | – | – | – | – | 8.31 | – | 9.0 | 13.0 | 6.99 | –
5 | Nc1nccn2c(C3CCC(CO)OC3)nc(-c3ccc(Oc4cccc(F)c4F)cc3)c12 (single isomer, unassigned) [Compound 6, (5-(8-amino-1-(4-(2,3-difluorophenoxy)phenyl)imidazo[1,5-a]pyrazin-3-yl)tetrahydro-2H-pyran-2-yl)methanol] | 0.075 | – | – | – | – | – | 7.12 | 8.8 | 9.21 | 7.48 | – | – | 7.56 | –
6 | Nc1nccn2c(C3CCC(CO)OC3)nc(-c3ccc(Oc4ccccc4)cc3)c12 (centres unmarked) [Compound 1, (5-(8-amino-1-(4-phenoxyphenyl)imidazo[1,5-a]pyrazin-3-yl)tetrahydro-2H-pyran-2-yl)methanol] | 0.098 | – | – | – | – | – | – | 44.9 | 8.94 | – | – | – | – | 7.62

Further lines, with some results ahead:

Row | fraction unbound at 18 h, 5 μM [1] | Kp [2] | Kp uu [2, 7] | Kp uu [2, 8] | fraction unbound [3, 9] | fraction unbound [3, 10] | pIC50 [4] | microsomal CLint (Hu Mic Clint) [µL/min/mg] | pIC50 [5] | pIC50 [6] | hPPB (fu %) [1] [%] | Hu Mic Clint (Hu Mic Clint) [µL/min/mg] | Compound | pIC50 (TMD-8 cells; 72 hours) | pIC50 (TMD-8 cells; Homo sapiens, TMD8, 72 h)
7 | – | – | – | – | – | – | – | – | 8.80 | – | 7.3 | 13.3 | Nc1nccn2c(C3CCC(CO)OC3)nc(-c3ccc(Oc4cccc(F)c4F)cc3)c12 (single isomer, unassigned) [Compound 7, (5-(8-amino-1-(4-(2,3-difluorophenoxy)phenyl)imidazo[1,5-a]pyrazin-3-yl)tetrahydro-2H-pyran-2-yl)methanol] | 6.66 | –
8 | 0.093 | – | – | – | – | – | – | – | 8.46 | – | – | 41.3 | Nc1ncnn2c(C3CCC(CO)OC3)nc(-c3ccc(Oc4ccccc4)cc3F)c12 (single isomer, unassigned) [Compound 8, (5-(4-amino-5-(2-fluoro-4-phenoxyphenyl)imidazo[5,1-f][1,2,4]triazin-7-yl)tetrahydro-2H-pyran-2-yl)methanol] | 7.11 | –
9 | – | – | – | – | – | – | – | – | 8.06 | – | 5.8 | 34.3 | Nc1ncnn2c(C3CCC(CO)OC3)nc(-c3ccc(Oc4ccccc4)cc3F)c12 (single isomer, unassigned) [Compound 9, (5-(4-amino-5-(2-fluoro-4-phenoxyphenyl)imidazo[1,5-a][1,2,4]triazin-7-yl)tetrahydro-2H-pyran-2-yl)methanol] | 6.79 | –
10 | – | 0.38 | 0.56 | 0.23 | 0.022 | 0.037 | 6.77 | – | 9.05 | 7.22 | 8.1 | 7.0 | Nc1ncnn2c(C3CCC(CO)OC3)nc(-c3ccc(Oc4ccccc4)cc3F)c12 (single isomer, unassigned) [Compound 10, Trans-(5-(4-amino-5-(2-fluoro-4-phenoxyphenyl)imidazo[5,1-f][1,2,4]triazin-7-yl)tetrahydro-2H-pyran-2-yl)methanol] | 7.49 | –
11 | – | – | – | – | – | – | – | – | 8.35 | – | 8.9 | 9.3 | Nc1ncnn2c(C3CCC(CO)OC3)nc(-c3ccc(Oc4ccccc4)cc3F)c12 (single isomer, unassigned) [Compound 11, Trans-(5-(4-amino-5-(2-fluoro-4-phenoxyphenyl)imidazo[5,1-f][1,2,4]triazin-7-yl)tetrahydro-2H-pyran-2-yl)methanol] | 7.15 | –
12 | 0.074 | – | – | – | – | – | 7.33 | < 3 | 9.57 | 7.75 | – | – | Nc1ncnn2c(C3CCC(CO)OC3)nc(-c3ccc(Oc4ccccc4)c(F)c3F)c12 (centres unmarked) [Compound 12, (5-(4-amino-5-(2,3-difluoro-4-phenoxyphenyl)imidazo[1,5-f][1,2,4]triazin-7-yl)tetrahydro-2H-pyran-2-yl)methanol] | – | –
13 | 0.049 | 0.32 | 0.59 | 0.23 | 0.015 | 0.02 | 7.44 | < 3 | 9.15 | 7.80 | – | – | Nc1ncnn2c(C3CCC(CO)OC3)nc(-c3ccc(Oc4cccc(F)c4F)cc3)c12 (centres unmarked) [Compound 14, (5-(4-amino-5-(4-(2,3-difluorophenoxy)phenyl)imidazo[5,1-f][1,2,4]triazin-7-yl)tetrahydro-2H-pyran-2-yl)methanol] | – | –
